Experimental data as given in PMC7044277 (Nature Communications, 2020).
Several values for one entry are separate records, joined by “and”; a condition that tells them apart may be missing. Equal entries are not always repeated.

Assays:
DRD3 wild-type = DRD3 wild-type (Homo sapiens, UniProt P35462); test: Radioligand competition binding, [3H]-N-methylspiperone; conditions: DRD3; [3H]-methylspiperone (0.8-1.0 nM); read-out: Ki
5HT2A = 5HT2A (Homo sapiens, UniProt P28223); test: β-arrestin2 recruitment (Tango); format: cell-based; conditions: single replicate values
[1] = test system: serotonin receptor of Fig_S10i (subtype not given); test: β-arrestin2 recruitment (Tango), agonist activity, source data Fig_S10i; format: cell-based, human; conditions: drug alone
320 non-olfactory GPCRs = format: cell-based; conditions: compound at 1 μM
5HT1A = molecular target: T1, 5HT1A (Homo sapiens, UniProt P08908); test: β-arrestin2 recruitment (Tango); format: cell-based; conditions: Fig_S10f, single replicates
T1 construct: expressed in transfected cells; host or cells: HTLA cells expressing TEV-fused β-arrestin2
T1 sequence (P08908 1-422): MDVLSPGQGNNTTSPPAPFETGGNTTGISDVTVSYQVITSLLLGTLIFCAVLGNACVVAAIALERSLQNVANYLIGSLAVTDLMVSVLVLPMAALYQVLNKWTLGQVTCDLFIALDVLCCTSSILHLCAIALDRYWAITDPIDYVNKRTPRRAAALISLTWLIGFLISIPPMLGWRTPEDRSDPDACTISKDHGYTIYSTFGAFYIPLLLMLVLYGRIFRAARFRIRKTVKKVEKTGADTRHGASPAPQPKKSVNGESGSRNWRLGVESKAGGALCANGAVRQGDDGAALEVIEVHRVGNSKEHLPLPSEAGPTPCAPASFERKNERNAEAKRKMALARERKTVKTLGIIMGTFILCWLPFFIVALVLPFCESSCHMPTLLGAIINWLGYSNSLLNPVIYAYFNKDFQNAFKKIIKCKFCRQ

DRD3 = DRD3 (Homo sapiens, UniProt P35462); test: β-arrestin2 recruitment (Tango); format: cell-based; conditions: for response, concentration-response data point (replicates): Fig_S10b, drug alone
Sequence of DRD3 (P35462 whole entry): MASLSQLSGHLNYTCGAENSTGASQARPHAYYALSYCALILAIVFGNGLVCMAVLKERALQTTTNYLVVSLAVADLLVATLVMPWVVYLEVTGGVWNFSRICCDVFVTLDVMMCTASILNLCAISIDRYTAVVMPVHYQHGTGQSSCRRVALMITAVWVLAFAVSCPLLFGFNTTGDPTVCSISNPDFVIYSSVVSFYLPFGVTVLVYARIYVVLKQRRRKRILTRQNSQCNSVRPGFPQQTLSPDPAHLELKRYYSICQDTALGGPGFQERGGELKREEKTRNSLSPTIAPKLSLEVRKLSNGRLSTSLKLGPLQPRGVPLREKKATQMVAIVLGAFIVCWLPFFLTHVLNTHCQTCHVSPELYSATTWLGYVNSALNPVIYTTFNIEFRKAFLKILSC

Sequence of 5HT2A (P28223 whole entry): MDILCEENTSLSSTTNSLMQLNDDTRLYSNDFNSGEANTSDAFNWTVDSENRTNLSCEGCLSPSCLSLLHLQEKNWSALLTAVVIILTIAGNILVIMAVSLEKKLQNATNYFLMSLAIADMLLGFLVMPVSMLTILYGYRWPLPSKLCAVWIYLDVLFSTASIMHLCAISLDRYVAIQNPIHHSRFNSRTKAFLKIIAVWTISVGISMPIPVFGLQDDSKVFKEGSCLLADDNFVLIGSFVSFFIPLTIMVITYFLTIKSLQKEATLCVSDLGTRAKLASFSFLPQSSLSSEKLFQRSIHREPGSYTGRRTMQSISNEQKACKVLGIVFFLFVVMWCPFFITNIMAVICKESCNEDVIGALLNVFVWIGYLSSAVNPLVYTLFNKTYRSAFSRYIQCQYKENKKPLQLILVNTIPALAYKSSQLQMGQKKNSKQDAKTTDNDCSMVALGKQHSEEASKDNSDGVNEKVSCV
Sequence of DRD3 wild-type (P35462 whole entry): as the sequence (P35462 whole entry) above

CCOc1cccc2cc([C@H](C)NCC3(O)CCCCC3)oc12 [O4SE6]
Ki (DRD3 wild-type): 810 nM
Fig_S10k dose-response, drug alone (agonist mode), β-arrestin2 recruitment (5HT2A; Log[Drug] -6.52): 0.09538
Fig_S10k dose-response, drug alone (agonist mode), β-arrestin2 recruitment (5HT2A; Log[Drug] -7): 0.3962 and -0.2054 (2×) and 5.128 and 7.247 and 2.453 and 3.603 and 2.6312 and 1.871
Fig_S10k dose-response, drug alone (agonist mode), β-arrestin2 recruitment (5HT2A; Log[Drug] -7.52): 1.849 and 5.363 and 7.4248 and 2.33 and -2.369 and -1.196 and 2.4436 and 3.608 and 1.304
Fig_S10k dose-response, drug alone (agonist mode), β-arrestin2 recruitment (5HT2A; Log[Drug] -8): 0.1101 and -1.394 and 0.08804 and 0.4387 and -1.323 and -0.5329 and 3.218 and 3.021 and 2.073
Fig_S10k dose-response, drug alone (agonist mode), β-arrestin2 recruitment (5HT2A; Log[Drug] -8.52): 0.3815 and 3.632 and -0.1981 and 19.2051 and 7.825 and 6.317 and 2.439 and 3.208 and 2.251
Fig_S10k dose-response, drug alone (agonist mode), β-arrestin2 recruitment (5HT2A; Log[Drug] -9): 0.6676 and 2.15 and 0.4035 and 0.1625 and 2.551 and 3.851 and 2.828 and 4.478 and 2.251
Fig_S10k dose-response, drug alone (agonist mode), β-arrestin2 recruitment (5HT2A; Log[Drug] -9.52): 4.806 and 0.08804 and -0.4842 and 4.631 and 0.2307 and -0.1755 and 1.9722 and 24.5707 and 1.991
Fig_S10k dose-response, drug alone (agonist mode), β-arrestin2 recruitment (5HT2A; Log[Drug] -10): -0.2054 and -0.7704 and 0.7117 and -0.5849 and 0.2632 and -1.306 and 3.401 and 3.333 and 0.9043
Fig_S10k dose-response, drug alone (agonist mode), β-arrestin2 recruitment (5HT2A; Log[Drug] -10.52): -0.4696 and 0.1247 and -0.7704 and 2.297 and 0.5134 and 0.234 and 6.104 and 1.842 and 5.349
Fig_S10k dose-response, drug alone (agonist mode), β-arrestin2 recruitment (5HT2A; Log[Drug] -11): -0.4842 and -0.7704 and -1.0785 and -0.00325 and -1.534 and 4.039 and 3.002 and 2.646 and 1.477
Fig_S10k dose-response, drug alone (agonist mode), β-arrestin2 recruitment (5HT2A; Log[Drug] -11.52): -0.2421 and 0.9685 and 5.092 and -0.6109 and 22.6335 and -1.787 and 6.47 and 2.973 and 3.016
Fig_S10k dose-response, drug alone (agonist mode), β-arrestin2 recruitment (5HT2A; Log[Drug] -12): 13.3089 and 0.9391 and 1.555 and -1.157 and -0.9684 and -1.794 and 7.23 and 11.8669 and 5.71
response, single replicates of the concentration-response curve ([1]; Log[Drug] -11.52): -11.574 and -4.3 and 8.5185 and 5.043 and 17.6989 and -6.28 and -5.544 and 6.734 and -5.212
response, single replicates of the concentration-response curve ([1]; Log[Drug] -12): -1.958 and 0.9753 and 5.65 and 9.245 and 10.4038 and -4.648 and 6.652 and -2.743 and 7.282
agonism across 320 nonolfactory GPCRs (320 non-olfactory GPCRs): only DRD2 activity was observed
β-arrestin2 recruitment response, agonist mode (normalized) (5HT1A; Log[Drug] -9.52): -0.8354 and -0.6725 and 0.6683 and 0.2383 and 1.852 and 0.7592 and 0.2273 and 0.7234 and 0.9859
β-arrestin2 recruitment response, agonist mode (normalized) (5HT1A; Log[Drug] -10): 0.6642 and 0.6683 and -0.5096 and -0.1895 and -0.3206 and 1.295 and 0.9379 and 4.834 and 0.8483
β-arrestin2 recruitment response, agonist mode (normalized) (5HT1A; Log[Drug] -10.52): 0.8312 and -0.848 and -0.5013 and 0.469 and 0.1267 and -0.3585 and 11.6165 and 0.685 and 0.3585
β-arrestin2 recruitment response, agonist mode (normalized) (5HT1A; Log[Drug] -11): -0.188 and 0.8354 and -0.1713 and -0.4961 and -0.2339 and 0.4322 and 2.113 and 0.3457 and 0.4834
β-arrestin2 recruitment response, agonist mode (normalized) (5HT1A; Log[Drug] -11.52): 1.3325 and -0.1754 and -0.6683 and -0.2719 and 3.032 and -0.4646 and -0.4129 and 1.767 and 1.504
β-arrestin2 recruitment response, agonist mode (normalized) (5HT1A; Log[Drug] -12): 0.1671 and -0.9983 and -0.6683 and -0.2567 and -0.0639 and 2.424 and -0.7778 and 0.7554 and 0.3457
β-arrestin2 recruitment agonist activity (DRD3; DRD3, Tango): no detectable agonist activity
EC50 (DRD3; DRD3, Tango, read-out: EC50 ± SEM): > 10000 nM
response, concentration-response data point (replicates) (DRD3; Log[Drug] -11): 0.5878 and 2.511 and 1.194 and 2.15 and 1.1907 and 4.631 and -3.875 and 11.6724 and 8.605
response, concentration-response data point (replicates) (DRD3; Log[Drug] -11.52): -0.276 and 0.7993 and -0.05881 and 1.198 and 0.07895 and 5.103 and 9.785 and 5.488 and 1.269
response, concentration-response data point (replicates) (DRD3; Log[Drug] -12): 1.3136 and 1.529 and -0.0652 and 0.03793 and 0.02727 and 3.808 and -3.9762 and 0.1686 and 1.294
